Source: patent publication US20140243322A1, “BIVALENT BROMODOMAIN LIGANDS, AND METHODS OF USING SAME” (Coferon, Inc., priority 2011, published 2014)

Key:
Myc mRNA = test: Inhibition of Myc expression (Myc mRNA) in MV4-11 cells; assay type: cell-based; details: Homo sapiens, 4 hours of treatment, read-out: EC50 range, Myc mRNA normalized to GAPDH mRNA
Description: Inhibition of Myc Expression.

MV4-11 cells = test: Inhibition of MV4-11 cell proliferation (Cell-Titer Glo); assay type: cell-based; details: Homo sapiens, 72 hours of growth, read-out: GI50 range
Procedure: Inhibition of MV4-11 Cell Proliferation.
MV4-11 cells (5000 cells in 50 μl volumes) in growth medium containing 10% FBS and 1% Pen/Strep were plated and grown overnight in 96 well plates and treated the next day with 3-fold dilutions of test compounds or with DMSO vehicle. After 72 hours of growth, 30 ul of Cell-Titer Glo reagent (Promega) was added to the wells and the plates incubated for 30 minutes. Luminescence was measured on a Spectramax M5 plate reader and GI50 values were calculated for each test compound.

[1] = molecular target: N-terminal His 6-tagged BRD2 tandem protein; test: Surface Plasmon Resonance (SPR) off-rate assay; assay type: binding; details: immobilized BRD2 tandem protein; saturating concentrations injected 5 minutes, buffer 20 minutes
Procedure: Surface Plasmon Resonance (SPR) Assay.
Off rates were determined using surface plasmon resonance measurements on a Bio-Rad ProteOn XPR 36 instrument. N-terminal His 6-tagged BRD2 tandem protein was immobilized by capturing on a ProteOn HTG sensor chip and then cross coupled to the surface using standard amine reactive chemistry. Selected bivalent inhibitors were injected on to the chip surface at saturating concentrations for 5 minutes followed by buffer for 20 minutes. The resulting sensorgrams were analyzed using the ProteOn XPR software to determine off-rates. Off rates for selected bivalent inhibitors were >100× slower when binding to the BRD2 tandem protein compared to the monovalent pharmacophores or compared to the bivalents binding to monobromodomain containing protein constructs.

With CCNC(=O)C[C@@H]1N=C(c2ccc(Cl)cc2)c2cc(OCCOCCOCCOCCOCCOCCOCCOCCNC(=O)C[C@@H]3N=C(c4ccc(Cl)cc4)c4cc(OC)ccc4-n4c(C)nnc43)ccc2-n2c(C)nnc21 [BRD-B-15, N-(23-(((4S)-6-(4-chlorophenyl)-4-(2-(ethylamino)-2-oxoethyl)-1-methyl-4H-benzo[f][1,2,4]triazolo[4,3-a][1,4]diazepin-8-yl)oxy)-3,6,9,12,15,18,21-heptaoxatricosyl)-2-((4S)-6-(4-chlorophenyl)-8-methoxy-1-methyl-4H-benzo[f][1,2,4]triazolo[4,3-a][1,4]diazepin-4-yl)acetamide] the EC50 (Myc mRNA) was 100 to 30000 nM, the GI50 (MV4-11 cells) was 0.1 to 30 nM and the “kd (off rate)” value [1] was 8.3e-05 s⁻¹.
